Where two headings read alike, the source gives them in different places.
What was measured:
human Gal-3 (hGal-3) = human Gal-3 (hGal-3) (Homo sapiens (Human), UniProt P17931); test: competitive binding assay: biotinylated hGal-3 binding to microplate-adsorbed asialofetuin (ASF)
Procedure: If not explicitly mentioned otherwise, the inhibition data refer to the binding of biotinylated human Gal-3 (hGal-3).
(§1) Evaluation of Compound Inhibitory Activity (IC50)
The inhibitory activity of compounds is determined in competitive binding assays.
Briefly, compounds are serially diluted in DMSO (working dilutions).
(§2) Plates are incubated for 3 hours at 4° C., then washed with cold assay buffer (3×50 uL), incubated for 1 hour with 25 μL/well of a streptavidin-peroxidase solution (diluted in assay buffer to 80 ng/mL) at 4° C., followed by further washing steps with assay buffer (3×50 uL). Finally, 25 μL/well of ABTS substrate is added.
(§3) The calculated IC50 values may fluctuate depending on the daily assay performance. Fluctuations of this kind are known to those skilled in the art. IC50 values from several measurements are given as mean values.

human Gal-1 (hGal-1) = human Gal-1 (hGal-1) (Homo sapiens (Human), UniProt P09382); test: competitive binding assay: biotinylated hGal-1 binding to microplate-adsorbed asialofetuin (ASF); conditions: Table 15; read-out: IC50 (Galectin-1 inhibition)
Chain of human Gal-1 (hGal-1) (P09382 whole entry): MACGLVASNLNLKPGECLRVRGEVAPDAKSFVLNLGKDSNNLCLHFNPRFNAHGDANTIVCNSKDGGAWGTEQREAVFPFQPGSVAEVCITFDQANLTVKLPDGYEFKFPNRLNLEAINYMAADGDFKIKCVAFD
Procedure: Inhibition data of the epimers R and S of selected Examples are also listed.
as §1
The inhibitory activity of compounds is determined in competitive binding assays. This spectrophotometric assay measures the binding of biotinylated human Gal-3 (hGal-3) or human Gal-1 (hGal-1), respectively, to a microplate-adsorbed glycoprotein, asialofetuin (ASF) (Proc Natl Acad Sci USA. 2013 Mar. 26; 110(13):5052-7.).
Briefly, compounds are serially diluted in DMSO (working dilutions). ASF-coated 384 well plates are supplemented with 22.8 μL/well of biotinylated hGal-3 or hGal-1 in assay buffer (i.e. 300-1000 ng/mL biotinylated hGal-3 or hGal-1) to which 1.2 μL of compound working dilutions are added and mixed.
as §2, §3

[1] = Gal-3 inhibition, binding of biotinylated hGal-3 to ASF, mean values, read-out: IC50
[2] = Table 14, read-out: IC50 (Gal-3 inhibition)

Chain of human Gal-3 (hGal-3) (P17931 whole entry): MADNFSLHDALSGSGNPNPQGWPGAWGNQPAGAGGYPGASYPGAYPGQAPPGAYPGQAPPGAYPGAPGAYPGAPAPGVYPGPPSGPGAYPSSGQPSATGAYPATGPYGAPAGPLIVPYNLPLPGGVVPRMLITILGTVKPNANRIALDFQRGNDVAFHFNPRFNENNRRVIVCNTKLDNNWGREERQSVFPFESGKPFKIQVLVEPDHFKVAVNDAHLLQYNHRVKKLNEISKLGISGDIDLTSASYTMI

Compound | IC50 (human Gal-3 (hGal-3); [1]) [nM] | IC50 (human Gal-1 (hGal-1)) [nM] | IC50 (human Gal-3 (hGal-3); [2]) [nM] | IC50 (human Gal-3 (hGal-3); Table 5, read-out: IC50 (Gal-3 inhibition)) [nM] | IC50 (human Gal-3 (hGal-3); Table 11, read-out: IC50 (Gal-3 inhibition)) [nM]
Cc1ccnnc1[C@H](S[C@@H]1O[C@H](CO)[C@H](O)[C@H](n2cc(-c3cc(F)c(F)c(F)c3)nn2)[C@H]1O)C1(O)CCC(F)(F)CC1 [Example 2.44.135S., (2S,3R,4S,5R,6R)-2-(((S)-(4,4-Difluoro-1-hydroxycyclohexyl)(4-methylpyridazin-3-yl)methyl)thio)-6-(hydroxymethyl)-4-(4-(3,4,5-trifluorophenyl)-1H-1,2,3-triazol-1-yl)tetrahydro-2H-pyran-3,5-diol] | 2790 | 5430 | – | – | –
Cc1nccnc1C(S[C@@H]1O[C@H](CO)[C@H](O)[C@H](n2cc(-c3cc(F)c(F)c(F)c3)nn2)[C@H]1O)C1(O)CCC(F)(F)CC1 (stereo partly drawn) [Example 2.44.129., (2S,3R,4S,5R,6R)-2-(((4,4-Difluoro-1-hydroxycyclohexyl)(3-methylpyrazin-2-yl)methyl)thio)-6-(hydroxymethyl)-4-(4-(3,4,5-trifluorophenyl)-1H-1,2,3-triazol-1-yl)tetrahydro-2H-pyran-3,5-diol] | 90 | 350 | – | – | –
OC[C@H]1O[C@@H](SC(c2ncccc2C2CC2)C2(O)CCC(F)(F)CC2)[C@H](O)[C@@H](n2cc(-c3cc(F)c(F)c(F)c3)nn2)[C@H]1O (stereo partly drawn) [Example 2.44.134., (2S,3R,4S,5R,6R)-2-(((3-Cyclopropylpyridin-2-yl)(4,4-difluoro-1-hydroxycyclohexyl)methyl)thio)-6-(hydroxymethyl)-4-(4-(3,4,5-trifluorophenyl)-1H-1,2,3-triazol-1-yl)tetrahydro-2H-pyran-3,5-diol] | 70 | 140 | – | – | –
Cc1c(F)cc(-c2cn([C@H]3[C@@H](O)[C@@H](CO)O[C@@H](SC(c4ccccc4C(F)(F)F)C(C)(C)O)[C@@H]3O)nn2)cc1F (stereo partly drawn) [Example 3.31.112., (2S,3R,4S,5R,6R)-4-(4-(3,5-Difluoro-4-methylphenyl)-1H-1,2,3-triazol-1-yl)-2-((2-hydroxy-2-methyl-1-(2-(trifluoromethyl)phenyl)propyl)thio)-6-(hydroxymethyl)tetrahydro-2H-pyran-3,5-diol] | 210 | 4900 | – | – | –
Cc1nc(C)c(C(S[C@@H]2O[C@H](CO)[C@H](O)[C@H](n3cc(-c4cc(F)c(F)c(F)c4)nn3)[C@H]2O)C(C)(C)O)nc1C (stereo partly drawn) [Example 2.31.119., (2S,3R,4S,5R,6R)-2-((2-Hydroxy-2-methyl-1-(3,5,6-trimethylpyrazin-2-yl)propyl)thio)-6-(hydroxymethyl)-4-(4-(3,4,5-trifluorophenyl)-1H-1,2,3-triazol-1-yl)tetrahydro-2H-pyran-3,5-diol] | 230 | 1750 | – | – | –
CO[C@@H]1[C@@H](n2cc(-c3cc(F)c(C)c(F)c3)nn2)[C@@H](O)[C@@H](CO)O[C@H]1S[C@H](c1ncccc1C)C1(O)CCC(F)(F)CC1 [Example 3.44.126R.I., (2R,3R,4S,5R,6S)-6-(((R)-(4,4-Difluoro-1-hydroxycyclohexyl)(3-methylpyridin-2-yl)methyl)thio)-4-(4-(3,5-difluoro-4-methylphenyl)-1H-1,2,3-triazol-1-yl)-2-(hydroxymethyl)-5-methoxytetrahydro-2H-pyran-3-ol] | – | 2430 | 40 | – | –
CC(C)(O)[C@H](S[C@@H]1O[C@H](CO)[C@H](O)[C@H](n2cc(-c3cc(F)c(F)c(F)c3)nn2)[C@H]1O)c1ccccc1-c1ccccc1 [Example 2.31.110R., (2S,3R,4S,5R,6R)-2-(((R)-1-([1,1′-Biphenyl]-2-yl)-2-hydroxy-2-methylpropyl)thio)-6-(hydroxymethyl)-4-(4-(3,4,5-trifluorophenyl)-1H-1,2,3-triazol-1-yl)tetrahydro-2H-pyran-3,5-diol] | 220 | 280 | – | – | –
Cc1nc(C)c(C(S[C@@H]2O[C@H](CO)[C@H](O)[C@H](n3cc(-c4cc(F)c(F)c(F)c4)nn3)[C@H]2O)C2(O)CCOCC2)nc1C (stereo partly drawn) [Example 2.41.119., (2R,3R,4S,5R,6S)-2-(Hydroxymethyl)-6-(((4-hydroxytetrahydro-2H-pyran-4-yl)(3,5,6-trimethylpyrazin-2-yl)methyl)thio)-4-(4-(3,4,5-trifluorophenyl)-1H-1,2,3-triazol-1-yl)tetrahydro-2H-pyran-3,5-diol] | – | 20000 | – | 160 | –
CO[C@@H]1[C@@H](n2cc(-c3ccc(C)c(F)c3F)nn2)[C@@H](O)[C@@H](CO)O[C@H]1SC(c1ncccc1C)C1(O)CCC(F)(F)CC1 (stereo partly drawn) [Example 23.44.126.I., (2R,3R,4S,5R,6S)-6-(((4,4-Difluoro-1-hydroxycyclohexyl)(3-methylpyridin-2-yl)methyl)thio)-4-(4-(2,3-difluoro-4-methylphenyl)-1H-1,2,3-triazol-1-yl)-2-(hydroxymethyl)-5-methoxytetrahydro-2H-pyran-3-ol] | – | 550 | 50 | – | –
CO[C@@H]1[C@@H](n2cc(-c3cc(F)c(F)c(F)c3)nn2)[C@@H](O)[C@@H](CO)O[C@H]1S[C@H](c1nc(C)ccc1Cl)C1(O)CCC(F)(F)CC1 [Example 2.44.148R.I., (2R,3R,4S,5R,6S)-6-(((R)-(3-Chloro-6-methylpyridin-2-yl)(4,4-difluoro-1-hydroxycyclohexyl)methyl)thio)-2-(hydroxymethyl)-5-methoxy-4-(4-(3,4,5-trifluorophenyl)-1H-1,2,3-triazol-1-yl)tetrahydro-2H-pyran-3-ol] | – | 3040 | – | – | 240
CO[C@@H]1[C@@H](n2cc(-c3cc(F)c(Cl)c(Cl)c3)nn2)[C@@H](O)[C@@H](CO)O[C@H]1SC(c1ncccc1C)C1(O)CCC(F)(F)CC1 (stereo partly drawn) [Example 17.44.126.I., (2R,3R,4S,5R,6S)-4-(4-(3,4-Dichloro-5-fluorophenyl)-1H-1,2,3-triazol-1-yl)-6-(((4,4-difluoro-1-hydroxycyclohexyl)(3-methylpyridin-2-yl)methyl)thio)-2-(hydroxymethyl)-5-methoxytetrahydro-2H-pyran-3-ol] | – | 1680 | 140 | – | –
CC(C)Cc1c(C(S[C@@H]2O[C@H](CO)[C@H](O)[C@H](n3cc(-c4cc(F)c(F)c(F)c4)nn3)[C@H]2O)C2(O)CCC(F)(F)CC2)noc1C1CC1 (stereo partly drawn) [Example 2.44.131., (2S,3R,4S,5R,6R)-2-(((5-Cyclopropyl-4-isobutylisoxazol-3-yl)(4,4-difluoro-1-hydroxycyclohexyl)methyl)thio)-6-(hydroxymethyl)-4-(4-(3,4,5-trifluorophenyl)-1H-1,2,3-triazol-1-yl)tetrahydro-2H-pyran-3,5-diol] | – | 220 | – | – | –
Cc1nc([C@@H](S[C@@H]2O[C@H](CO)[C@H](O)[C@H](n3cc(-c4cc(F)c(F)c(F)c4)nn3)[C@H]2O)C(C)(C)O)c(C)s1 [Example 2.31.123R., (2S,3R,4S,5R,6R)-2-(((R)-1-(2,5-Dimethylthiazol-4-yl)-2-hydroxy-2-methylpropyl)thio)-6-(hydroxymethyl)-4-(4-(3,4,5-trifluorophenyl)-1H-1,2,3-triazol-1-yl)tetrahydro-2H-pyran-3,5-diol] | – | 1190 | – | – | –
Cc1nc([C@H](S[C@@H]2O[C@H](CO)[C@H](O)[C@H](n3cc(-c4cc(F)c(F)c(F)c4)nn3)[C@H]2O)C(C)(C)O)c(C)s1 [Example 2.31.123S., (2S,3R,4S,5R,6R)-2-(((S)-1-(2,5-Dimethylthiazol-4-yl)-2-hydroxy-2-methylpropyl)thio)-6-(hydroxymethyl)-4-(4-(3,4,5-trifluorophenyl)-1H-1,2,3-triazol-1-yl)tetrahydro-2H-pyran-3,5-diol] | – | 29400 | – | – | –
